In ChEMBL document CHEMBL3351444, “Poliothrysoside and its derivatives as novel insulin sensitizers potentially driving AMPK activation and inhibiting adipogenesis” (Eur J Med Chem, 2014):
The source made the active and inactive calls. No cut-off for these calls is given here.

How the values were obtained:
[1] = test system: 3T3-L1; test: Induction of [3H] 2-deoxyglucose uptake in chronic insulin resistant mouse 3T3L1 cells assessed as maximum uptake at 10 uM by liquid scintillation counting; format: functional
[2] = test system: 3T3-L1; test: Induction of [3H] 2-deoxyglucose uptake in chronic insulin resistant mouse 3T3L1 cells assessed as maximum uptake by liquid scintillation counting; format: functional, cell-based
[3] = test system: 3T3-L1; test: Induction of AMPK phosphorylation in mouse 3T3L1 cells at 10 uM by Western blot analysis; format: cell-based
[4] = test system: 3T3-L1; test: Induction of AKT phosphorylation in mouse 3T3L1 cells at 10 uM by Western blot analysis; format: cell-based
[5] = test system: 3T3-L1; test: Induction of [3H] 2-deoxyglucose uptake in chronic insulin resistant mouse 3T3L1 cells at 10 uM after 24 hrs by liquid scintillation counting in presence of AMPK inhibitor compound C; format: functional, cell-based
[6] = test system: 3T3-L1; test: Inhibition of adipogenesis in mouse 3T3L1 cells assessed as reduction in lipid droplet formation at 20 uM by using Oil-Red O by microscopy; format: functional
[7] = test system: 3T3-L1; test: Inhibition of adipogenesis in mouse 3T3L1 cells assessed as reduction in lipid droplet formation at 50 uM by using Oil-Red O by microscopy; format: functional
[8] = test system: 3T3-L1; test: Inhibition of adipogenesis in mouse 3T3L1 cells assessed as reduction in lipid droplet formation at 10 uM by using Oil-Red O by microscopy; format: functional, cell-based
[9] = Toxicity in mouse 3T3L1 cells; format: cell-based; conditions: 3t3-l1
[10] = test system: 3T3-L1; test: Inhibition of adipogenesis in mouse 3T3L1 cells assessed as reduction in lipid droplet formation by using Oil-Red O by microscopy; format: functional, cell-based
[11] = test system: 3T3-L1; test: Induction of AMPK phosphorylation in mouse 3T3L1 cells at 1 mM by Western blot analysis; format: cell-based

CC(=O)OCc1cc(OC(C)=O)ccc1O[C@@H]1O[C@H](COC(=O)c2ccccc2)[C@@H](OC(C)=O)[C@H](OC(C)=O)[C@H]1OC(C)=O
Activity [1]: 17.35 pmol/mg/min | Activity [2]: Dose-dependent effect | Activity [3]: Active | Activity [4]: inactive | Activity [5]: inactive | inhibition at 20 µM [6]: 20% | inhibition at 50 µM [7]: 64% | inhibition [8]: inactive | Activity [9]: Non-toxic | inhibition [10]: Dose-dependent effect

O=C(OC[C@H]1O[C@@H](Oc2ccc(OCc3ccccc3)cc2CO)[C@H](O)[C@@H](O)[C@@H]1O)c1ccccc1
Activity [1]: Active

O=C(OC[C@H]1O[C@@H](Oc2ccc(O)cc2CO)[C@H](O)[C@@H](O)[C@@H]1O)c1ccccc1
Activity [1]: Active

CN(C)C(=N)NC(=N)N
Activity [11]: Active

O=C(OC[C@H]1O[C@@H](Oc2ccc(OCc3ccc([N+](=O)[O-])cc3)cc2CO)[C@H](O)[C@@H](O)[C@@H]1O)c1ccccc1
Activity [1]: Active

O=C(COc1ccc(O[C@@H]2O[C@H](COC(=O)c3ccccc3)[C@@H](O)[C@H](O)[C@H]2O)c(CO)c1)c1ccc(Cl)cc1
Activity [1]: Active

O=C(COc1ccc(O[C@@H]2O[C@H](COC(=O)c3ccccc3)[C@@H](O)[C@H](O)[C@H]2O)c(CO)c1)c1ccccc1
Activity [1]: Active

CCOc1ccc(O[C@@H]2O[C@H](COC(=O)c3ccccc3)[C@@H](O)[C@H](O)[C@H]2O)c(CO)c1
Activity [1]: Active
